Results published in patent publication US4211772A, “Benzopyran glycoside acetals and ketals” (Laboratoires Sarget, priority 1977, dated 1980).
Read-outs that look alike come from different tables or passages of the source.

Experiments:
[1] = target: T1, Aldose Reductase (Bos taurus, UniProt P16116); experiment: Inhibition of aldose reductase in vitro (enzyme from beef eye lenses, glyceraldehyde substrate); format: biochemical; conditions: in DMF solution, read-out: percentages of inhibition (aldose reductase)
T1 construct: The enzyme is extracted from beef eye lenses; from tissue; host or cells: beef eye lenses
Description: Inhibition of Aldose Reductase In Vitro
The reoxidation of NADPH coupled to the enzymatic reaction was followed spectrophotometrically at 340 nm.

[2] = system: carragenin edema; experiment: Anti-inflammatory activity: carragenin edema test; format: in vivo; conditions: for % inhibition of carragenin edema: borate buffer pH 7, 24 h; for inhibition in vivo at 50 mg/kg / inhibition in vivo at 75 mg/kg / inhibition in vivo at 100 mg/kg / inhibition in vivo at 150 mg/kg: Rattus norvegicus, ip
Method in brief: (§1)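 Male Wistar EOPS rats receive 0.1 ml of 5% carragenin suspension in physiological serum into the hind-paw metatarsal muscle, with test substance given i.p. in neutralized solution at the same time. Paw edema is measured by plethysmometry at several times after carragenin and reported as % inhibition against pH-matched physiological serum controls.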

[3] = Anti-inflammatory activity: carragenin edema test; format: in vivo; conditions: rat, in vivo, ip, borate buffer pH 7
Method in brief: as §1

[4] = Solubilities in water; format: physicochemical; conditions: water; read-out: Solubilities in water

## C[C@@H]1O[C@@H](Oc2c(-c3ccc(O)c(O)c3)oc3cc(O)cc(O)c3c2=O)[C@@H]2OC3(CCCCC3)O[C@@H]2[C@H]1O [No. 7, 3-O-(2,3-O,O-cyclohexylidene-α-L-rhamnosyl)-quercetin]
[1]; 10^-4 mole/l
  inhibition at 100 µM: 91%
[1]; 10^-5 mole/l
  inhibition at 10 µM: 95%
[1]; 10^-6 mole/l
  inhibition at 1 µM: 84%
[1]; 10^-7 mole/l
  inhibition at 0.1 µM: 87%
[2]; 50 mg/kg i.p.
  % inhibition of carragenin edema: 10%
[2]; 75 mg/kg i.p.
  % inhibition of carragenin edema: 84%
[2]; 100 mg/kg i.p.
  % inhibition of carragenin edema: 67%
[2]; 150 mg/kg i.p.
  % inhibition of carragenin edema: 87%
[2]; 1 h, pH 7, read-out: % inhibition of carragenin edema, 50 mg/kg i.p., borate buffer pH 7, 1 h
  inhibition in vivo at 50 mg/kg: 14%
[2]; 1 h, pH 7, read-out: % inhibition of carragenin edema, 50 mg/kg i.p., borate buffer pH 7, 1 h 1/2
  inhibition in vivo at 50 mg/kg: 22%
[2]; 1 h, pH 7, read-out: % inhibition of carragenin edema, 75 mg/kg i.p., borate buffer pH 7, 1 h
  inhibition in vivo at 75 mg/kg: 73%
[2]; 1 h, pH 7, read-out: % inhibition of carragenin edema, 75 mg/kg i.p., borate buffer pH 7, 1 h 1/2
  inhibition in vivo at 75 mg/kg: 91%
[2]; 1 h, pH 7, read-out: % inhibition of carragenin edema, 100 mg/kg i.p., borate buffer pH 7, 1 h
  inhibition in vivo at 100 mg/kg: 51%
[2]; 1 h, pH 7, read-out: % inhibition of carragenin edema, 100 mg/kg i.p., borate buffer pH 7, 1 h 1/2
  inhibition in vivo at 100 mg/kg: 52%
[2]; 1 h, pH 7, read-out: % inhibition of carragenin edema, 150 mg/kg i.p., borate buffer pH 7, 1 h
  inhibition in vivo at 150 mg/kg: 89%
[2]; 1 h, pH 7, read-out: % inhibition of carragenin edema, 150 mg/kg i.p., borate buffer pH 7, 1 h 1/2
  inhibition in vivo at 150 mg/kg: 97%
[2]; 2 h, pH 7, read-out: % inhibition of carragenin edema, 50 mg/kg i.p., borate buffer pH 7, 2 h
  inhibition in vivo at 50 mg/kg: 16%
[2]; 2 h, pH 7, read-out: % inhibition of carragenin edema, 75 mg/kg i.p., borate buffer pH 7, 2 h
  inhibition in vivo at 75 mg/kg: 89%
[2]; 2 h, pH 7, read-out: % inhibition of carragenin edema, 100 mg/kg i.p., borate buffer pH 7, 2 h
  inhibition in vivo at 100 mg/kg: 48%
[2]; 2 h, pH 7, read-out: % inhibition of carragenin edema, 150 mg/kg i.p., borate buffer pH 7, 2 h
  inhibition in vivo at 150 mg/kg: 97%
[2]; 3 h, pH 7, read-out: % inhibition of carragenin edema, 50 mg/kg i.p., borate buffer pH 7, 3 h
  inhibition in vivo at 50 mg/kg: 23%
[2]; 3 h, pH 7, read-out: % inhibition of carragenin edema, 75 mg/kg i.p., borate buffer pH 7, 3 h
  inhibition in vivo at 75 mg/kg: 86%
[2]; 3 h, pH 7, read-out: % inhibition of carragenin edema, 100 mg/kg i.p., borate buffer pH 7, 3 h
  inhibition in vivo at 100 mg/kg: 45%
[2]; 3 h, pH 7, read-out: % inhibition of carragenin edema, 150 mg/kg i.p., borate buffer pH 7, 3 h
  inhibition in vivo at 150 mg/kg: 94%
[2]; 4 h, pH 7, read-out: % inhibition of carragenin edema, 50 mg/kg i.p., borate buffer pH 7, 4 h
  inhibition in vivo at 50 mg/kg: 21%
[2]; 4 h, pH 7, read-out: % inhibition of carragenin edema, 75 mg/kg i.p., borate buffer pH 7, 4 h
  inhibition in vivo at 75 mg/kg: 81%
[2]; 4 h, pH 7, read-out: % inhibition of carragenin edema, 100 mg/kg i.p., borate buffer pH 7, 4 h
  inhibition in vivo at 100 mg/kg: 46%
[2]; 4 h, pH 7, read-out: % inhibition of carragenin edema, 150 mg/kg i.p., borate buffer pH 7, 4 h
  inhibition in vivo at 150 mg/kg: 89%
[2]; 5 h, pH 7, read-out: % inhibition of carragenin edema, 50 mg/kg i.p., borate buffer pH 7, 5 h
  inhibition in vivo at 50 mg/kg: 7%
[2]; 5 h, pH 7, read-out: % inhibition of carragenin edema, 75 mg/kg i.p., borate buffer pH 7, 5 h
  inhibition in vivo at 75 mg/kg: 83%
[2]; 5 h, pH 7, read-out: % inhibition of carragenin edema, 100 mg/kg i.p., borate buffer pH 7, 5 h
  inhibition in vivo at 100 mg/kg: 45%
[2]; 5 h, pH 7, read-out: % inhibition of carragenin edema, 150 mg/kg i.p., borate buffer pH 7, 5 h
  inhibition in vivo at 150 mg/kg: 91%
[2]; 6 h, pH 7, read-out: % inhibition of carragenin edema, 50 mg/kg i.p., borate buffer pH 7, 6 h
  inhibition in vivo at 50 mg/kg: 6%
[2]; 6 h, pH 7, read-out: % inhibition of carragenin edema, 75 mg/kg i.p., borate buffer pH 7, 6 h
  inhibition in vivo at 75 mg/kg: 81%
[2]; 6 h, pH 7, read-out: % inhibition of carragenin edema, 100 mg/kg i.p., borate buffer pH 7, 6 h
  inhibition in vivo at 100 mg/kg: 43%
[2]; 6 h, pH 7, read-out: % inhibition of carragenin edema, 150 mg/kg i.p., borate buffer pH 7, 6 h
  inhibition in vivo at 150 mg/kg: 86%
[2]; read-out: % inhibition of carragenin edema, 50 mg/kg i.p., borate buffer pH 7, 1/2 h
  inhibition in vivo at 50 mg/kg: 0%
[2]; read-out: % inhibition of carragenin edema, 75 mg/kg i.p., borate buffer pH 7, 1/2 h
  inhibition in vivo at 75 mg/kg: 48%
[2]; read-out: % inhibition of carragenin edema, 100 mg/kg i.p., borate buffer pH 7, 1/2 h
  inhibition in vivo at 100 mg/kg: 21%
[2]; read-out: % inhibition of carragenin edema, 150 mg/kg i.p., borate buffer pH 7, 1/2 h
  inhibition in vivo at 150 mg/kg: 70%
[3]; 100 mg/kg i.p.
  mortality at 24 h: 20%
[3]; 150 mg/kg i.p.
  mortality at 5 h: 80%
[4]
  solubility: < 100 µg/mL
